What was measured:
[1] = tested on: mice under chronic mild stress; test: Elevated plus maze test after completion of stress; type: in vivo
Method: In this test, an anxiety level can be evaluated from the time for being the open arm, and a behavior amount can be evaluated from the number of times of entering the closed arm. From the evaluations, when a mouse has an anxiety symptom (condition), the time for being in the open arm […], and thus, a level of the anxiety symptom (condition) can be evaluated from the length of the time. FIGS. 8 to 11 show the results.
Example 2 is a behavior test in which the compound 8 was administered to a mouse as well as stress was applied and a suppression effect of the compound 8 on depressive and anxiety symptoms of the mouse was examined. On the other hand, the present example is a behavior test in which only stress was applied for 3 weeks without administering the compound 8 and stress was completed and a therapeutic effect of the compound 8 on depressive and anxiety symptoms of a mouse after removing stress was examined. Stress was applied to a mouse in the same manner as in Example 2. For behavior tests of mice, the burying the glass-marbles test, the tail suspension test and the elevated plus maze test were performed respectively in the same manners as in Example 2 on groups without administering the compound 8 immediately after completion of stress for 3 weeks and groups without administering the compound 8 with no stress from the start (hereinafter referred to as “non-administration groups after completion of stress”); a group administered with the compound 8 for 1 week after completion of stress and a group administered with the compound 8 for 1 week in the same manner as the former group with no stress from the start (hereinafter referred to as “1 week-administration groups after completion of stress”); and a group administered with the compound 8 for 2 weeks after completion of stress and a group administered with the compound 8 for 2 weeks in the same manner as the former group with no stress from the start (hereinafter referred to as “2 week-administration groups after completion of stress”). […]

[2] = tested on: mice under chronic mild stress; test: Burying the glass-marbles test, compound given at the same time as stress; type: in vivo; details: 20, 100 and 500 μg/kg intraperitoneally once per day with stress; stressed 3 week- and 1 week-administration groups
Method: Mice under established chronic mild stress (hereinafter referred to as “stress”) were used for a depression and anxiety disorder-like model animal. Stress was applied as follows. 7-week-old male ddY strain mice fed in one cage for 4 mice were used and first subjected to forced swimming for 15 minutes. Then, the mice were fed in a sloped cage for 2 days, and then rested in a normal cage for 1 day. Then, the mice were fed in a dirt cage moisturized with 200 mL of water for 1 day and then rested in a normal cage for 1 day. Then, the mice were fed in a rotational cage that rotated at 180 rpm for 1 day, and then rested in a normal cage for 1 day. […] For 0 μg/kg administration examples of controls, a phosphoric acid buffer containing 0.1% DMSO (controls were expressed as “PBS” or “0 μg/kg” in the figure shown below) was administered in an amount of 0.25 mL to each of a stressed example and a non-stressed example. […]
Tips were bedded so as to have a height of 5 cm in a box with […] and 25 glass marbles (1.6 cm in diameter) were placed thereon at 5 cm-interval and behaviors of mice were observed. […] Since a mouse under stress having an anxiety symptom (condition) takes such a behavior as burying glass marbles, a level of the anxiety symptom can be evaluated from the number of buried glass marbles.

CCCCCCC/C=C/C(=O)OCC [Compound 8, trans-2-decenoic acid ethyl ester]
no significant difference: time for being in open arm, stressed vs non-stressed example ([1]; 500 μg/kg, 1 week-administration groups after completion of stress) | number of times of entering closed arm (behavior amount) ([1]; 1 week- and 2 week-administration groups after completion of stress, vs controls (0 μg/kg) and stressed vs non-stressed) | time for being in open arm, stressed vs non-stressed example ([1]; all administration examples, 2 week-administration group after completion of stress) | number of buried glass marbles, stressed vs non-stressed example [2]

From US8557864B2, “Agent having neurotrophic factor-like activity” (Nagoya Industrial Science Research Institute, priority 2007, dated 2013)
